Results taken from ChEMBL document CHEMBL1125260, “Binding of substituted and conformationally restricted derivatives of N-(3-phenyl-n-propyl)-1-phenyl-2-aminopropane at sigma-receptors” (J Med Chem, 1991).

Experiments:
[1] = target: T1, Glutamate receptor ionotropic, AMPA (Rattus norvegicus, UniProt P19490+P19491+P19492+P19493); test: In vitro binding affinity at quisqualate binding site of quisqualate/AMPA glutamate receptors in rat brain membrane using [3H]- ]AMPA as radioligand; format: cell membranes
[2] = target: Glutamate receptor ionotropic, kainate; test: In vitro binding affinity at Ionotropic glutamate receptor ionotropic kainate in rat brain membrane using [3H]kainate as radioligand; format: cell membranes
[3] = target: Muscarinic acetylcholine receptor; test: In vitro binding affinity at muscarinic binding site receptors in rat brain membrane using [3H]QNB as radioligand; format: cell membranes
Adrenergic receptor beta [4] = target: T2, Adrenergic receptor beta (Rattus norvegicus, UniProt P18090+P10608+P26255); test: In vitro binding affinity at beta adrenergic receptor binding site receptors in rat brain membrane using [3H]dihydroalprenolol as radioligand; format: cell membranes
D(1A) dopamine receptor = D(1A) dopamine receptor (Rattus norvegicus, UniProt P18901); test: In vitro binding affinity at Dopamine receptor D1 using [3H]SCH-23390 as radioligand
D(1A) dopamine receptor, sequence (P18901 whole entry): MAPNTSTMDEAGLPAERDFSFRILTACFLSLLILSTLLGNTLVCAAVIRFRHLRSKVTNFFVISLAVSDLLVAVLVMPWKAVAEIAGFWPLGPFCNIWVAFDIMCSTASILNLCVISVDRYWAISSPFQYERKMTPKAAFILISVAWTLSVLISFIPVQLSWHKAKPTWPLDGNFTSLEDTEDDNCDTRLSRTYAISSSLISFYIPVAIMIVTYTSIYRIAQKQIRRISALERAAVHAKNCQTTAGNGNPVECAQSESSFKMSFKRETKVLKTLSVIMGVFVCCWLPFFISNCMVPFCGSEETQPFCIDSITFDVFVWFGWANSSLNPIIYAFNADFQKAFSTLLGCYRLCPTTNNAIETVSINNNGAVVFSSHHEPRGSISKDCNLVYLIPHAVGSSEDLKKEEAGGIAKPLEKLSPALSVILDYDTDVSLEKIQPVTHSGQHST

D(2) dopamine receptor = D(2) dopamine receptor (Rattus norvegicus, UniProt P61169); test: In vitro binding affinity at Dopamine receptor D2 in rat striata using [3H]domperidone as radioligand
D(2) dopamine receptor, sequence (P61169 whole entry): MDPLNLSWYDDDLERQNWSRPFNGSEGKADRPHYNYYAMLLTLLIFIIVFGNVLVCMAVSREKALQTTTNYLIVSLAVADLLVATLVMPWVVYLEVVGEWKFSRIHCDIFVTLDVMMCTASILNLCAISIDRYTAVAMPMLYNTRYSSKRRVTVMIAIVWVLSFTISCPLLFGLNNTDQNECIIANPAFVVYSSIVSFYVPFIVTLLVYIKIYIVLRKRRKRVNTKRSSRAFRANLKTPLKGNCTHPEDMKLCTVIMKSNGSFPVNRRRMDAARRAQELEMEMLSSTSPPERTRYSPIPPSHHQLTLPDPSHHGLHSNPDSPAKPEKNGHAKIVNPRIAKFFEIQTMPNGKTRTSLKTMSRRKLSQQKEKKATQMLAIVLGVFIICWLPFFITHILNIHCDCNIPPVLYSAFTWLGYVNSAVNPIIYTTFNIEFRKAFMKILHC

Adrenergic receptor beta [5] = target: T2, Adrenergic receptor beta; test: In vitro binding affinity at Beta adrenergic receptor in rat brain membrane using [3H]dihydroalprenolol as radioligand; format: cell membranes
[6] = target: Glutamate receptor ionotropic, kainate; test: In vitro binding affinity at Ionotropic glutamate receptor kainate in rat brain membrane using [3H]kainate as radioligand; format: cell membranes
[7] = target: Muscarinic acetylcholine receptor; test: In vitro binding affinity at Muscarinic acetylcholine receptor in rat brain membrane using [3H]QNB as radioligand; format: cell membranes
[8] = target: T1, Glutamate receptor ionotropic, AMPA; test: In vitro binding affinity at quisqualate binding site of quisqualate/AMPA glutamate receptors in rat brain membrane using [3H]AMPA as radioligand; format: cell membranes

Structure (SMILES) | IC50 [1] | IC50 [2] | IC50 [3] | IC50 (Adrenergic receptor beta [4]) | IC50 (D(1A) dopamine receptor) | IC50 (D(2) dopamine receptor) | IC50 (Adrenergic receptor beta [5]) | IC50 [6] | IC50 [7] | IC50 [8]
CC(Cc1ccc(I)cc1)NCCCc1ccccc1 (centres undefined) | > 10 µM | > 10 µM | > 10 µM | 5.57 µM | > 10 µM | 3.8 µM |  |  |  | 
c1ccc(CCCNC2CCc3ccccc3CC2)cc1 | > 10 µM |  |  |  | > 10 µM | 5.8 µM | > 10 µM | > 10 µM | 9.5 µM | 
CC(Cc1ccc(Cl)c(Cl)c1)NCCCc1ccccc1 (centres undefined) | > 10 µM |  |  |  | > 10 µM | 1.79 µM | 1.24 µM | > 10 µM | 7.4 µM | 
COc1ccc(CC(C)NCCCc2ccccc2)cc1 (centres undefined) |  | > 10 µM | > 10 µM | 4.94 µM | > 10 µM | 9.32 µM |  |  |  | > 10 µM
